Data set [1] deals with Sprague-Dawley rats, i.c.v. ouabain-induced hyperactivity. In words: Ouabain-induced hyperactivity. The settings on record: acute; cariprazine 1.0 mg/kg i.p. aCSF vs. saline aCSF (no ouabain); P < 0.05. The format is in vivo, rat.
Data set [2] addresses mouse D2R-long form (mD2LR) (Mus musculus, UniProt P61168). In words: cell-based.
The conditions of data set [3]: cited from earlier work.
[4] abbreviates: after an i.p. injection, ref [1976].

Structures are written as SMILES. Bounds are passed on as bounds.

Data on two molecules can be found in article PMC4317219 (Pharmacology Research & Perspectives, 2014).

Chain of mouse D2R-long form (mD2LR) (P61168 whole entry): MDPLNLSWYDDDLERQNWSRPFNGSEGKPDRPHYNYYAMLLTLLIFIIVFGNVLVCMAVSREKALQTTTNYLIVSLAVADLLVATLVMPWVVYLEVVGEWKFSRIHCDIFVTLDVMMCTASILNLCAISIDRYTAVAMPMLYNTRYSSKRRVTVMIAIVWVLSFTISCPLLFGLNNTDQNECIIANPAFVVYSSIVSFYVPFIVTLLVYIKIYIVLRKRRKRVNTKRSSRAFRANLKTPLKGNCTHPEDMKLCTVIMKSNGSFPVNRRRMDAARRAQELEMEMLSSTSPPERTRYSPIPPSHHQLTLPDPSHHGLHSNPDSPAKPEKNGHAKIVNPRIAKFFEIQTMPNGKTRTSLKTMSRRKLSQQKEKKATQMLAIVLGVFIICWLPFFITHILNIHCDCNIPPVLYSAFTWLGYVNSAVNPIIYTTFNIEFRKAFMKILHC

One may read the EC50 as the midpoint of the concentration-response curve. A low value points to higher potency in that assay. In the case of `CN(C)C(=O)N[C@H]1CC[C@H](CCN2CCN(c3cccc(Cl)c3Cl)CC2)CC1` [Cariprazine], the “sedation: inhibition of open field activity” value in data set [1] is given as 72%. The molecule also yielded an EC50 in data set [2] of 1.4 ± 0.1 nM.

In the case of `[Li]` [lithium], the “lithium levels achieved in the rats” value in data set [3] (6.75 mEq/kg i.p. then 2.4 g/kg of food for 7 days, ref [2003]) is reported as 1.01 ± 0.18 mmol/L. Further, in data set [3] (setting [4]), the “time to maximum brain levels” value is at most 8 h and the “time to maximum serum level” value is recorded as at most 0.5 h.
